Assay results reported in ChEMBL document CHEMBL1146964, “Factor VIIa inhibitors: improved pharmacokinetic parameters” (Bioorg Med Chem Lett, 2006).

Tests used:
[1] = Mean residence time in iv dosed rat; assay type: ADME, organism-based; settings: in vivo
[2] = target: Coagulation factor VII/tissue factor (Homo sapiens, UniProt P08709); assay: Binding affinity to factor7a/TF complex; assay type: protein-complex assay
[3] = Plasma clearance in iv dosed rat
[4] = Bioavailability in sc dosed rat; assay type: ADME, organism-based; settings: in vivo

Chain of Coagulation factor VII/tissue factor (P08709 61-212 limits assumed): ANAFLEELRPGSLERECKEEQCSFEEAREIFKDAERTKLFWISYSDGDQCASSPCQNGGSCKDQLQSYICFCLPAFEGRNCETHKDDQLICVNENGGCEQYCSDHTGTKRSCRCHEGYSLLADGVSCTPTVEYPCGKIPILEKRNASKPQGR
Chain of Coagulation factor VII/tissue factor (P08709 213-466 limits assumed): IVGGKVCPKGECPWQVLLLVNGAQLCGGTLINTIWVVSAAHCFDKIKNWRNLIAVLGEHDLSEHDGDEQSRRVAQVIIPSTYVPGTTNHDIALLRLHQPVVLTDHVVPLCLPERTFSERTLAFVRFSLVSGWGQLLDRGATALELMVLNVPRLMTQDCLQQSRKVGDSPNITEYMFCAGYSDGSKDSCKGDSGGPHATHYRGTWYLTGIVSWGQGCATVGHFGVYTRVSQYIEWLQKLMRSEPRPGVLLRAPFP
Chain of Coagulation factor VII/tissue factor (P13726 33-295 partner limits assumed): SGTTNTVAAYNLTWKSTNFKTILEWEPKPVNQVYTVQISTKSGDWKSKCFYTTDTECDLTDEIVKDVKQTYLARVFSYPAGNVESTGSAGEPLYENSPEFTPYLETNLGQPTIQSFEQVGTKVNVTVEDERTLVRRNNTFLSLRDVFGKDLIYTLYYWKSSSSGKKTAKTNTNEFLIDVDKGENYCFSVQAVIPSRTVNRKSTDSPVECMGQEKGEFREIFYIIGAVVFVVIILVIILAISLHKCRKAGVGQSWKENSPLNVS

SMILES	MRT [1] [h]	Ki [2] [µM]	clearance [3] [L/h/kg]	bioavailability [4] [%]
N=C(N)c1ccc2[nH]c(-c3cc(CC(CC(=O)O)C(=O)O)cc(-c4cc(F)ccc4O)c3O)nc2c1 (centres undefined)	< 1	0.004	0.156	–
N=C(N)c1ccc2[nH]c(-c3cc(C(CC(=O)O)CC(=O)O)cc(-c4cccc([N+](=O)[O-])c4)c3O)cc2c1	1.5	0.013	–	–
N=C(N)c1ccc2nc(-c3cc(C(CCC(=O)O)C(=O)O)cc(-c4cccc([N+](=O)[O-])c4)c3O)[nH]c2c1 (centres undefined)	5	0.017	–	–
N=C(N)c1ccc2[nH]c(-c3cc(C(CC(=O)O)C(=O)O)cc(-c4cc(F)ccc4O)c3O)nc2c1 (centres undefined)	9	0.004	–	> 90
N=C(N)c1ccc2nc(-c3cc(C(CC(=O)O)CC(=O)O)cc(-c4cccc([N+](=O)[O-])c4)c3O)[nH]c2c1	–	0.036	–	–
N=C(N)c1ccc2nc(-c3cc(CC(C(=O)O)C(=O)O)cc(-c4cccc([N+](=O)[O-])c4)c3O)[nH]c2c1	< 1	0.021	–	–
N=C(N)c1ccc2[nH]c(-c3cc(C(CC(=O)O)C(=O)O)cc(-c4cccc([N+](=O)[O-])c4)c3O)nc2c1 (centres undefined)	> 24	0.022	0.0024	–
N=C(N)c1ccc2[nH]c(-c3cc(C(CC(=O)O)C(=O)O)cc(-c4cccc([N+](=O)[O-])c4)c3O)cc2c1 (centres undefined)	> 24	0.001	–	–

The remaining lines, values ahead:

MRT [1] [h]	Ki [2] [µM]	clearance [3] [L/h/kg]	bioavailability [4] [%]	SMILES
< 1	0.002	0.486	–	N=C(N)c1ccc2[nH]c(-c3cc(CC(=O)O)cc(-c4cc(F)ccc4O)c3O)nc2c1
< 1	0.015	–	–	N=C(N)c1ccc2nc(-c3cc(CC(=O)O)cc(-c4cccc([N+](=O)[O-])c4)c3O)[nH]c2c1
< 1	–	–	–	N=C(N)c1ccc2[nH]c(-c3cc(CC(=O)O)cc(-c4cccc([N+](=O)[O-])c4)c3O)cc2c1
